Measured values as given in patent US20040013730A1, “Non-hormonal vaginal contraceptive” (priority 2003, published 2004).

Legend:
human cervical mucus = assay: Cervical mucus score (WHO): viscosity, ferning, spinnbarkeit, cellularity, pH; conditions: for TOTAL cervical mucus score: pH not included
human sperm = assay: Efficacy of metal salts, albumin and dextran on motility of human sperm in vitro; conditions: for concentration at which spermiostatic (motility of sperm arrested): human sperm in vitro
[1] = ascorbic acid 0.31%, fourth sample (undated)
[2] = ascorbic acid 0.31%, sample Jun. 22, 2000
[3] = ascorbic acid 0.31%, sample Jun. 23, 2000
[4] = ascorbic acid 0.31%, third sample (undated)
[5] = ascorbic acid 0.63%, fourth sample (undated)
[6] = ascorbic acid 0.63%, sample Jun. 22, 2000
[7] = ascorbic acid 0.63%, sample Jun. 23, 2000
[8] = ascorbic acid 0.63%, third sample (undated)
[9] = ascorbic acid 1%, fourth sample (undated)
[10] = ascorbic acid 1%, sample Jun. 22, 2000
[11] = ascorbic acid 1%, sample Jun. 23, 2000
[12] = ascorbic acid 1%, third sample (undated)
[13] = ascorbic acid 1.25%, fourth sample (undated)
[14] = ascorbic acid 1.25%, sample Jun. 22, 2000
[15] = ascorbic acid 1.25%, sample Jun. 23, 2000
[16] = ascorbic acid 1.25%, third sample (undated)
[17] = ascorbic acid 2.50%, fourth sample (undated)
[18] = ascorbic acid 2.50%, sample Jun. 22, 2000
[19] = ascorbic acid 2.50%, sample Jun. 23, 2000
[20] = ascorbic acid 2.50%, third sample (undated)
[21] = ascorbic acid 5%, fourth sample (undated)
[22] = ascorbic acid 5%, sample Jun. 22, 2000
[23] = ascorbic acid 5%, sample Jun. 23, 2000
[24] = ascorbic acid 5%, third sample (undated)
[25] = ascorbic acid 10%, fourth sample (undated)
[26] = ascorbic acid 10%, sample Jun. 22, 2000
[27] = ascorbic acid 10%, sample Jun. 23, 2000
[28] = ascorbic acid 10%, third sample (undated)

O=C1O[C@H]([C@@H](O)CO)C(O)=C1O [ascorbic acid, L-ascorbic acid]
overall viscosity of the mucus (human cervical mucus; L-ascorbic acid from 0.31% to a range of 1-2.5%): increased in direct relationship with increasing concentrations | Cellularity (cervical mucus score) (human cervical mucus; [1]): 0 | Ferning (cervical mucus score) (human cervical mucus; [1]): 0 | Spinnbarkiet (cervical mucus score) (human cervical mucus; [1]): 1 ± .35 | Viscosity (cervical mucus score) (human cervical mucus; [1]): 2 ± .79 | TOTAL cervical mucus score (human cervical mucus; [1]): 3.2 | Cellularity (cervical mucus score) (human cervical mucus; [2]): 2 ± .86 | Ferning (cervical mucus score) (human cervical mucus; [2]): 2 ± .86 | Spinnbarkiet (cervical mucus score) (human cervical mucus; [2]): 0 (less than 1 cm) | Viscosity (cervical mucus score) (human cervical mucus; [2]): 3 ± .79 | TOTAL cervical mucus score (human cervical mucus; [2]): 7.3 | Cellularity (cervical mucus score) (human cervical mucus; [3]): 2 ± .58 | Ferning (cervical mucus score) (human cervical mucus; [3]): 0 | Spinnbarkeit (cervical mucus score) (human cervical mucus; [3]): 1 ± .35 | Viscosity (cervical mucus score) (human cervical mucus; [3]): 3 ± .79 | TOTAL cervical mucus score (human cervical mucus; [3]): 6.2 | Cellularity (cervical mucus score) (human cervical mucus; [4]): 1 ± .58 | Ferning (cervical mucus score) (human cervical mucus; [4]): 0 | Spinnbarkeit (cervical mucus score) (human cervical mucus; [4]): 0 (less than 1 cm) | Viscosity (cervical mucus score) (human cervical mucus; [4]): 2 ± .79 | TOTAL cervical mucus score (human cervical mucus; [4]): 3.15 | Cellularity (cervical mucus score) (human cervical mucus; [5]): 0 | Ferning (cervical mucus score) (human cervical mucus; [5]): 3 ± .86 | Spinnbarkiet (cervical mucus score) (human cervical mucus; [5]): 1 ± .49 | Viscosity (cervical mucus score) (human cervical mucus; [5]): 3 ± .81 | TOTAL cervical mucus score (human cervical mucus; [5]): 7.2 | Cellularity (cervical mucus score) (human cervical mucus; [6]): 0 | Ferning (cervical mucus score) (human cervical mucus; [6]): 0 | Spinnbarkiet (cervical mucus score) (human cervical mucus; [6]): 1 ± .49 | Viscosity (cervical mucus score) (human cervical mucus; [6]): 1 ± .81 | TOTAL cervical mucus score (human cervical mucus; [6]): 2.3 | Cellularity (cervical mucus score) (human cervical mucus; [7]): 0 | Ferning (cervical mucus score) (human cervical mucus; [7]): 0 | Spinnbarkeit (cervical mucus score) (human cervical mucus; [7]): 1 ± .49 | Viscosity (cervical mucus score) (human cervical mucus; [7]): 2 ± .81 | TOTAL cervical mucus score (human cervical mucus; [7]): 3.2 | Cellularity (cervical mucus score) (human cervical mucus; [8]): 1 ± .61 | Ferning (cervical mucus score) (human cervical mucus; [8]): 0 | Spinnbarkeit (cervical mucus score) (human cervical mucus; [8]): 1 ± .49 | Viscosity (cervical mucus score) (human cervical mucus; [8]): 1 ± .81 | TOTAL cervical mucus score (human cervical mucus; [8]): 3.15 | Cellularity (cervical mucus score) (human cervical mucus; [9]): 0 | Ferning (cervical mucus score) (human cervical mucus; [9]): 3 ± .82 | Spinnbarkiet (cervical mucus score) (human cervical mucus; [9]): 1 ± .51 | Viscosity (cervical mucus score) (human cervical mucus; [9]): 2 ± .75 | TOTAL cervical mucus score (human cervical mucus; [9]): 6.2 | Cellularity (cervical mucus score) (human cervical mucus; [10]): 2 ± .82 | Ferning (cervical mucus score) (human cervical mucus; [10]): 2 ± .82 | Spinnbarkiet (cervical mucus score) (human cervical mucus; [10]): 1 ± .51 | Viscosity (cervical mucus score) (human cervical mucus; [10]): 1 ± .75 | TOTAL cervical mucus score (human cervical mucus; [10]): 6.3 | Cellularity (cervical mucus score) (human cervical mucus; [11]): 0 | Ferning (cervical mucus score) (human cervical mucus; [11]): 0 | Spinnbarkeit (cervical mucus score) (human cervical mucus; [11]): 1 ± .51 | Viscosity (cervical mucus score) (human cervical mucus; [11]): 2 ± .75 | TOTAL cervical mucus score (human cervical mucus; [11]): 3.2 | Cellularity (cervical mucus score) (human cervical mucus; [12]): 0 | Ferning (cervical mucus score) (human cervical mucus; [12]): 0 | Spinnbarkeit (cervical mucus score) (human cervical mucus; [12]): 1 ± .51 | Viscosity (cervical mucus score) (human cervical mucus; [12]): 2 ± .75 | TOTAL cervical mucus score (human cervical mucus; [12]): 3.15 | Cellularity (cervical mucus score) (human cervical mucus; [13]): 1 ± .53 | Ferning (cervical mucus score) (human cervical mucus; [13]): 2 ± 1.13 | Spinnbarkiet (cervical mucus score) (human cervical mucus; [13]): 1 ± 51 | Viscosity (cervical mucus score) (human cervical mucus; [13]): 3 ± .95 | TOTAL cervical mucus score (human cervical mucus; [13]): 7.2 | Cellularity (cervical mucus score) (human cervical mucus; [14]): 0 | Ferning (cervical mucus score) (human cervical mucus; [14]): 0 | Spinnbarkiet (cervical mucus score) (human cervical mucus; [14]): 1 ± .51 | Viscosity (cervical mucus score) (human cervical mucus; [14]): 1 ± .95 | TOTAL cervical mucus score (human cervical mucus; [14]): 2.3 | Cellularity (cervical mucus score) (human cervical mucus; [15]): 0 | Ferning (cervical mucus score) (human cervical mucus; [15]): 0 | Spinnbarkeit (cervical mucus score) (human cervical mucus; [15]): 1 ± .51 | Viscosity (cervical mucus score) (human cervical mucus; [15]): 3 ± .95 | TOTAL cervical mucus score (human cervical mucus; [15]): 4.2 | Cellularity (cervical mucus score) (human cervical mucus; [16]): 1 ± .53 | Ferning (cervical mucus score) (human cervical mucus; [16]): 0 | Spinnbarkeit (cervical mucus score) (human cervical mucus; [16]): 0 (less than 1 cm) | Viscosity (cervical mucus score) (human cervical mucus; [16]): 1 ± .95 | TOTAL cervical mucus score (human cervical mucus; [16]): 2.15 | Cellularity (cervical mucus score) (human cervical mucus; [17]): 1 ± .49 | Ferning (cervical mucus score) (human cervical mucus; [17]): 1 ± .82 | Spinnbarkiet (cervical mucus score) (human cervical mucus; [17]): 1 ± .14 | Viscosity (cervical mucus score) (human cervical mucus; [17]): 2 ± .61 | TOTAL cervical mucus score (human cervical mucus; [17]): 5.2 | Cellularity (cervical mucus score) (human cervical mucus; [18]): 0 | Ferning (cervical mucus score) (human cervical mucus; [18]): 0 | Spinnbarkiet (cervical mucus score) (human cervical mucus; [18]): 1 ± .14 | Viscosity (cervical mucus score) (human cervical mucus; [18]): 2 ± .61 | TOTAL cervical mucus score (human cervical mucus; [18]): 3.3 | Cellularity (cervical mucus score) (human cervical mucus; [19]): 1 ± .49 | Ferning (cervical mucus score) (human cervical mucus; [19]): 0 | Spinnbarkeit (cervical mucus score) (human cervical mucus; [19]): 1 ± .14 | Viscosity (cervical mucus score) (human cervical mucus; [19]): 0 | TOTAL cervical mucus score (human cervical mucus; [19]): 2.2 | Cellularity (cervical mucus score) (human cervical mucus; [20]): 1 ± .49 | Ferning (cervical mucus score) (human cervical mucus; [20]): 0 | Spinnbarkeit (cervical mucus score) (human cervical mucus; [20]): 0 (less than 1 cm) | Viscosity (cervical mucus score) (human cervical mucus; [20]): 1 ± .61 | TOTAL cervical mucus score (human cervical mucus; [20]): 2.15 | Cellularity (cervical mucus score) (human cervical mucus; [21]): 1 ± .66 | Ferning (cervical mucus score) (human cervical mucus; [21]): 0 | Spinnbarkiet (cervical mucus score) (human cervical mucus; [21]): 1 ± .35 | Viscosity (cervical mucus score) (human cervical mucus; [21]): 2 ± .52 | TOTAL cervical mucus score (human cervical mucus; [21]): 4.2 | Cellularity (cervical mucus score) (human cervical mucus; [22]): 0 | Ferning (cervical mucus score) (human cervical mucus; [22]): 0 | Spinnbarkiet (cervical mucus score) (human cervical mucus; [22]): 1 ± .35 | Viscosity (cervical mucus score) (human cervical mucus; [22]): 2 ± .52 | TOTAL cervical mucus score (human cervical mucus; [22]): 3.3 | Cellularity (cervical mucus score) (human cervical mucus; [23]): 0 | Ferning (cervical mucus score) (human cervical mucus; [23]): 0 | Spinnbarkeit (cervical mucus score) (human cervical mucus; [23]): 0 (less than 1 cm) | Viscosity (cervical mucus score) (human cervical mucus; [23]): 2 ± .52 | TOTAL cervical mucus score (human cervical mucus; [23]): 2.2 | Cellularity (cervical mucus score) (human cervical mucus; [24]): 0 | Ferning (cervical mucus score) (human cervical mucus; [24]): 0 | Spinnbarkeit (cervical mucus score) (human cervical mucus; [24]): 1 ± .35 | Viscosity (cervical mucus score) (human cervical mucus; [24]): 2 ± .25 | TOTAL cervical mucus score (human cervical mucus; [24]): 2.15 | Cellularity (cervical mucus score) (human cervical mucus; [25]): 0 | Ferning (cervical mucus score) (human cervical mucus; [25]): 0 | Spinnbarkiet (cervical mucus score) (human cervical mucus; [25]): 0 (less than 1 cm) | Viscosity (cervical mucus score) (human cervical mucus; [25]): 0 | TOTAL cervical mucus score (human cervical mucus; [25]): 0.2 | Cellularity (cervical mucus score) (human cervical mucus; [26]): 1 ± .53 | Ferning (cervical mucus score) (human cervical mucus; [26]): 1 ± .53 | Spinnbarkiet (cervical mucus score) (human cervical mucus; [26]): 1 ± .26 | Viscosity (cervical mucus score) (human cervical mucus; [26]): 1 ± .69 | TOTAL cervical mucus score (human cervical mucus; [26]): 4.3 | Cellularity (cervical mucus score) (human cervical mucus; [27]): 1 ± .51 | Ferning (cervical mucus score) (human cervical mucus; [27]): 1 ± .53 | Spinnbarkeit (cervical mucus score) (human cervical mucus; [27]): 1 ± .26 | Viscosity (cervical mucus score) (human cervical mucus; [27]): 2 ± .69 | TOTAL cervical mucus score (human cervical mucus; [27]): 5.2 | Cellularity (cervical mucus score) (human cervical mucus; [28]): 1 ± .51 | Ferning (cervical mucus score) (human cervical mucus; [28]): 0 | Spinnbarkeit (cervical mucus score) (human cervical mucus; [28]): 1 ± .26 | Viscosity (cervical mucus score) (human cervical mucus; [28]): 1 ± .69 | TOTAL cervical mucus score (human cervical mucus; [28]): 3.15

[Ca+2].[Cl-].[Cl-] [calcium chloride]
concentration at which spermiostatic (motility of sperm arrested) (human sperm): 25 mM

O=S(=O)([O-])[O-].[Cu+2] [copper sulfate]
immobilization of sperm (human sperm; 25 mM solution): 93.3% | immobilization of sperm (human sperm; 37.5 mM solution): completely immobilized all the sperm | additional spermiostatic effect (human sperm; 2.5% dextran added to 6.5-mM copper sulfate solution): no additional spermiostatic effect | concentration at which spermiostatic (motility of sperm arrested) (human sperm): 6.25 mM

[Cl-].[Cl-].[Mg+2] [magnesium chloride]
concentration at which spermiostatic (motility of sperm arrested) (human sperm): 35 mM

albumin
sperm motility (human sperm; 10% albumin): decreased sperm motility almost close to that of 12.5 mM concentration of ferrous gluconate | sperm completely immobilized (human sperm; 20% albumin): ~97% | sperm completely immobilized (human sperm; 40% albumin): ~97% | spermiostatic effects (human sperm; lower concentrations of albumin and dextran): not significant

dihydrate ferrous gluconate [dihydrate form of ferrous gluconate]
onset of spermiostatic effect (human sperm; dihydrate form of ferrous gluconate): immediate

ferrous gluconate
immobilization of sperm (human sperm; 25 mM solution): 97.4% | immobilization of sperm (human sperm; 37.5 mM solution): completely immobilized all the sperm | additional spermiostatic effect (human sperm; 2.5% dextran added to 12.5-mM ferrous gluconate solution): no additional spermiostatic effect | enhancement of the spermiostatic effect (human sperm; 2.5% dextran and 5% albumin added to 12.5 mM ferrous gluconate): no enhancement of the spermiostatic effect | concentration at which spermiostatic (motility of sperm arrested) (human sperm): 12.5 mM

ferrous sulfate
concentration at which spermiostatic (motility of sperm arrested) (human sperm): 10 mM
